# From US4241184A, “Secondary alcohol dehydrogenase enzyme and use thereof” (priority 1979, dated 1980)
# “Also recorded” adds a separate entry of the source. Like-named read-outs stand apart in the source and are kept apart here.
# Columns and labels:
# [1] = test system: P(40) particulate fraction of Methylosinus sp. (CRL-15, NRRL B-11,202); experiment: Oxidation of n-alkenes and n-alkanes by P(40) particulate fraction; type: biochemical
# [2] = test system: P(40) particulate fraction of Methylosinus sp. (CRL-15, NRRL B-11,202); experiment: Stoichiometry of propylene epoxidation and methane hydroxylation by P(40) fraction; type: biochemical; details: 5.0 μmoles substrate
# Description: The particulate P(40) fraction of Methylosinus sp. (CRL-15, NRRL B-11,202) was used to determine the stoichiometry of hydroxylation and epoxidation reactions. The stoichiometry of methane or propylene-dependant NADH oxidation, oxygen consumption and product formation was approximately 1:1:1 Table XIV. This is consistent with methane or propylene oxygenation being catalyzed by a mono-oxygenase.
# ^a Under identical condition of reaction, the estimation of NADH
# oxidized was carried out spectrophotometrically, the estimation of oxygen
# consumed was measured polarographically, and estimation of product formed
# was carried out by gas chromatography.
# [3] = test system: Methylococcus capsulatus (CRL Ml, NRRL B-11,219); experiment: Effect of inhibitors on epoxidation of propylene and hydroxylation of methane, cell-containing enzyme preparation; type: cell-based; details: for inhibition at 1000 µM: Methylococcus capsulatus, NRRLB11, 1 h
# [4] = test system: secondary alcohol dehydrogenase (SADH); experiment: Purified secondary alcohol dehydrogenase activity (formation of reduced NAD); type: biochemical, Pseudomonas sp. ATCC 21439
# Description: Secondary alcohol dehydrogenase (SADH) from an obligate methanol utilizer, Pseudomonas sp. ATCC 21439 was purified as follows. […] 0.05 M sodium phosphate buffer, pH 7.0 with 0.5 mM dithiothretol (buffer A) and were disrupted sonically (5×1 min.). The crude extract was separated by centrifugation. The crude extract was heat-treated at 50° C. in a water bath for 10 minutes. The resulting precipitate was removed by centrifugation. To the supernatant solution, 25 ml of protamine sulfate solution (2% solution in 0.1 M Tris base) was added dropwise with continuous stirring. After standing for 30 minutes, the extract was centrifuged. The supernatant solution was fractionated with solid ammonium sulfate. The material precipitating between 30 and 60% saturation was collected and was dialized overnight against buffer A. The The dialized material was applied to a DEAE-cellulose column (3 cm by 35 cm) that had been equilibrated with buffer A. The secondary alcohol dehydrogenase activity was eluted in the void volume. This DEAE-cellulose eluate was concentrated by ammonium sulfate fractionation. Material precipitating between 30 and 50% ammonium sulfate saturation was collected by centrifugation and dialyzed overnight against A. This fraction was further washed and filtered through an Amicon unit with XM 50 membrane. The concentrated fraction (6 ml) inside the Amicon unit was applied to an Affi-Gel Blue column (0.8 cm×18 cm) which had been equilibrated with buffer A for affinity chromatography. The column was washed overnight with buffer A (0.18 ml./min.) and then was eluted with buffer A containing 5 mM NAD. Each 1 ml. fraction was collected.
# The purified secondary alcohol dehydrogenase enzyme (SADH) may be used directly for converting C3 -C6 secondary alcohols to the corresponding methyl ketones by the procedures described above; however, a source of NAD^+ must be added to the reaction medium. One can determine the NAD-linked secondary alcohol dehydrogenase activity with a fluorescence spectrophotometer (Perkin Elmer, Model MPF 44A) by following the formation of reduced NAD (Ex 340 nm, Em 460 nm). The assay system (3 ml.) will typically contain: sodium phosphate buffer pH 7.0, 150 μmol; NAD 1.0 μmol; a given amount of enzyme preparation; and 20 μmol secondary alcohol. The reaction is started by the addition of secondary alcohol. One unit of SADH enzyme activity represents the reduction of one nmole NAD per minute.
# The effect of metal-chelating agents and thioreagents on the activity of the purified SADH enzyme were studied. […] The possibility of ethanol or n-propanol as an inhibitor was studied.
# [5] = test system: cell suspensions of C1 -utilizers; experiment: Optimal conditions and inhibition of 2-butanone production from 2-butanol by cell suspensions; type: cell-based
# Description: The following summarizes tests conducted on the optimal conditions for the production of methyl ketones from C3 -C6 sec. alcohols.
# [6] = test system: methanol-grown Methylococcus capsulatus CRL M1 (NRRL B-11,219); experiment: Effect of metal-chelating agents and other inhibitors on production of 2-butanone by cell suspensions; type: cell-based
# [7] = Oxidation of 2-butanol to 2-butanone by cell-free soluble extracts of C1-utilizing microbes; type: biochemical
# Description: The clear supernatant contained the SADH activity. […] The reaction was started by the addition of substrate.
# Catalytic activity was also assayed by fluorescence spectrophotometry.
# [8] = test system: secondary alcohol dehydrogenase; experiment: Purified yeast secondary alcohol dehydrogenase: substrates, electron acceptors, inhibitors, stoichiometry; type: biochemical, Pichia sp. NRRL Y-11,328
# Description: Large scale cultures of Pichia sp. NRRL Y-11,328 were grown with aeration at 30° C. in a 14-liter New Brunswick f fermentor in a mineral salt medium containing methanol (0.4%, v/v) as the sole carbon source. The cells (200 g., wet weight) were suspended in […] sodium phosphate buffer, pH 7.0, containing 1 mM dithiothreitol (buffer A), and crude extracts were prepared as described previously. To the crude extracts, 18 ml. of protamine sulfate solution [2% solution in 0.1 M tris (hydroxymethyl) aminomethane (tris) base] was added dropwise with continuous stirring. After standing for 30 min., the extracts were centrifuged at 20,000×g. for 60 min. The supernatant solution was fractionated with solid ammonium sulfate. Extracts were brought to 50% of saturation with respect to ammonium sulfate by addition of 313 g. of the salt per liter of extract. Precipitated proteins was removed by centrifugation, and 137 g. of ammonium sulfate was added per liter of the supernatant liquid to bring it to 70% of saturation. Material precipitating between 50 and 70% of saturation was collected by centrifugation and dissolved in buffer A. This preparation was dialyzed overnight against buffer A, and the dialyzed material was applied to a DEAE-cellulose column (5×40 cm) that had been equilibrated with buffer A. The sample was washed with 200 ml. of buffer A and eluted with 2 liters of buffer A that contained NaCl in a linear gradient running from a concentration of 0 to 0.5 M. Fractions of 15 ml. were collected. Fractions containing secondary alcohol dehydrogenase activity were pooled and were termed DEAE-cellulose eluate. The DEAE-cellulose eluate was concentrated by ammonium sulfate fractionation.
# Secondary alcohol dehydrogenase activity was measured spectrophotometrically at 340 nm with a NAD^+ as an electron acceptor. The reaction mixture, in a total 3.0 ml., contained 50 mM phosphate buffer, pH 8.0, 5μ moles NAD^+, crude extracts, and subtrate. The reactions were started by addition of 100 μl of 0.1 M substrate and the rate of NAD^+ reduction was measured. Protein concentration was determined by the method of Lowry et al.
# The substrate specificity of the purified secondary alcohol dehydrogenase was examined spectrophotometrically.
# [9] = test system: P(40) particulate fraction of Methylosinus sp. (CRL-15, NRRL B-11,202); experiment: Effect of inhibitors on propylene epoxidation and methane hydroxylation by P(40) fraction; type: biochemical; details: inhibitor 10^-3 M
# Description: The oxidation of methane and propylene by particulate [(P)40 and(P)80] fractions and soluble [S(80)] fraction was measured at 30° C. by estimating the production of methanol and propylene oxide, respectively. The reaction mixtures contained in 1.0 ml: 150 mM potassium phosphate buffer, pH 7.0 containing 5 mM MgCl2, 0.6 ml; 10 μmoles NADH, and cellular fraction.
# Reaction mixtures were contained in 10 ml vials at 4° C. Vials were sealed with rubber caps. The gaseous phase in the vials was removed using vacuum and then was replaced with a gas mixture of methane or propylene and oxygen at a 1:1, v/v ratio. Oxidation of other gaseous n-alkanes and n-alkenes was examined as described above. For liquid substrates, 10 μl of substrate was used directly. Vials were then incubated at 30° C. on a rotary shaker at 200 RPM.
# It has been reported that the oxidation of methane by cell suspensions of methane-utilizing bacteria was inhibited by various metal-binding or metal-chelating agents (Patel et al., J. Bacteriol. 126: 1017-1019 (1976)). […] (CRL-15, NRRL B-11,202) was examined.
# [10] = test system: Methylosinus trichosporium OB3b (NRRL B-11,196); experiment: Effect of inhibitors on epoxidation of propylene and hydroxylation of methane, cell-containing enzyme preparation; type: cell-based; details: NRRLB11, 1 h
# [11] = test system: Methylobacterium organophilum (CRL 26, NRRL B-11,222); experiment: as above; type: cell-based; details: NRRLB11, 1 h
# [12] = test system: cell-free particulate fractions derived from the methylotrophic microorganisms; experiment: Conversion of C3-C6 n-alkanes to sec. alcohols by cell-free particulate fractions: inhibitors and electron donors; type: biochemical
# Description: The conditions for preparing the cell suspensions or the cell-free particulate fractions from methane-grown methylotroph microorganisms is the same as described above. […] Tables XXV and XXVI show the conversion of C3 -C6 n-alkanes to the corresponding secondary alcohols using cell suspensions and cell-free particulate fractions, respectively, of methane-grown methylotroph microorganisms.
# [13] = NRRLB11, read-out: Inhibition (%) of production of 2-butanone
# [14] = read-out: % Inhibition, Epoxidation
# [15] = read-out: % Inhibition, Hydroxylation
# [16] = NRRLB11, read-out: Inhibition (%) of production of 2-butanone, 1 mM
# [17] = purified SADH, each inhibitor 1 mM, measured spectrofluorometrically
compound,measurement,setting,value
C [Methane],Propylene Oxide Produced,"[1]; substrate competition, gas phase as labelled",0 μmoles/hr/mg. protein
same,Rate of Product Formation,"[1]; substrate oxidized to its epoxide or alcohol, 30° C.",4.8 μ moles/hr/mg of protein
same,NADH Oxidized,[2],4.8 µmol
same,O2 Consumed,[2],4.6 µmol
same,Product formed,[2],4.2 µmol
same,inhibition of epoxidation of propylene to propylene oxide in the presence of methane,[3]; cell suspension of methane-grown strain,50%
CCC(C)=O [2-butanone],inhibition of SADH activity by the product,[4],inhibited
same,product inhibition of 2-butanone production,[5]; 8 μmoles 2-butanone added to viable cell suspensions,no product inhibition
O=C(O)CN(CCN(CC(=O)O)CC(=O)O)CC(=O)O [EDTA],inhibition at 1000 µM,[6]; [13],70%
same,% inhibition of SADH activity,[4],63%
O=C1C(Cl)=CC(=Nc2ccc(O)cc2)C=C1Cl [dichlorophenol indophenol],cofactor for oxidation of secondary alcohols in the cell-free system,[7],not effective
same,electron acceptor for the purified enzyme,[8],could not act as electron carrier
NC(=O)c1ccc[n+]([C@@H]2O[C@H](COP(=O)(O)OP(=O)(O)OC[C@H]3O[C@@H](n4cnc5c(N)ncnc54)[C@H](OP(=O)(O)O)[C@@H]3O)[C@@H](O)[C@H]2O)c1 [NADP],cofactor for oxidation of secondary alcohols in the cell-free system,[7],not effective
same,electron acceptor for the purified enzyme,[8],could not act as electron carrier
N[C@@H](CCC(=O)N[C@@H](CS)C(=O)NCC(=O)O)C(=O)O [glutathione],cofactor for oxidation of secondary alcohols in the cell-free system,[7],not effective
same,inhibition of secondary alcohol dehydrogenase activity,[8],strongly inhibited
NC(N)=S [Thiourea],"% Inhibition, Methane-Hydroxylating Activity",[9],98%
same,"% Inhibition, Propylene-Epoxidizing Activity",[9],98%
same,inhibition at 1000 µM,[10]; [14],100%
same,inhibition at 1000 µM,[10]; [15],100%
same,inhibition at 1000 µM,[3]; [14],100%
same,inhibition at 1000 µM,[3]; [15],100%
same,inhibition at 1000 µM,[11]; [14],100%
same,inhibition at 1000 µM,[11]; [15],100%
same,inhibition at 1000 µM,[6]; [16],0%
same,inhibition of the conversion of the n-alkanes to the sec. alcohols,[12],inhibited
same,inhibition of production of 2-butanone from 2-butanol by cell suspensions of the strains tested,[5],not inhibited
C[n+]1c2ccccc2nc2ccccc21 [phenazine methosulfate],cofactor for oxidation of secondary alcohols in the cell-free system,[7],not effective
same,electron acceptor for the purified enzyme,[8],could not act as electron carrier
[N-]=[N+]=[N-] [Sodium azide],inhibition at 1000 µM,[6]; [13],10%
same,% inhibition of SADH activity,[4]; [17],10%
"c1ccc(-c2ccccn2)nc1 [α,α -Bipyridyl, α,α-bipyridyl]","% Inhibition, Methane-Hydroxylating Activity",[9],99%
same,"% Inhibition, Propylene-Epoxidizing Activity",[9],98%
same,inhibition at 1000 µM,[10]; [14],100%
same,inhibition at 1000 µM,[10]; [15],90%
same,inhibition at 1000 µM,[3]; [14],100%
same,inhibition at 1000 µM,[3]; [15],100%
same,inhibition at 1000 µM,[11]; [14],100%
same,inhibition at 1000 µM,[11]; [15],100%
same,inhibition at 1000 µM,[6]; [16],75%
same,% inhibition of SADH activity,[4]; [17],70%
same,inhibition of the conversion of the n-alkanes to the sec. alcohols,[12],inhibited
same,inhibition of production of 2-butanone from 2-butanol by cell suspensions of the strains tested,[5],inhibited
NNC(N)=S [Thiosemicarbazide],"% Inhibition, Methane-Hydroxylating Activity",[9],100%
same,"% Inhibition, Propylene-Epoxidizing Activity",[9],97%
same,inhibition of the conversion of the n-alkanes to the sec. alcohols,[12],inhibited
NC(=O)C1=CN([C@@H]2O[C@H](COP(=O)(O)OP(=O)(O)OC[C@H]3O[C@@H](n4cnc5c(N)ncnc54)[C@H](OP(=O)(O)O)[C@@H]3O)[C@@H](O)[C@H]2O)C=CC1 [NAD(P)H],cofactor for oxidation of secondary alcohols in the cell-free system,[7],not effective
Oc1cccc2cccnc12 [8-Hydroxyquinoline],"% Inhibition, Methane-Hydroxylating Activity",[9],80%
same,"% Inhibition, Propylene-Epoxidizing Activity",[9],75%
same,inhibition of the conversion of the n-alkanes to the sec. alcohols,[12],inhibited
"Cc1cc2nc3c(=O)[nH]c(=O)nc-3n(C[C@H](O)[C@H](O)[C@H](O)COP(=O)(O)OP(=O)(O)OC[C@H]3O[C@@H](n4cnc5c(N)ncnc54)[C@H](O)[C@@H]3O)c2cc1C [FAD, flavin adenine dinucleotide]",cofactor for oxidation of secondary alcohols in the cell-free system,[7],not effective
same,electron acceptor for the purified enzyme,[8],could not act as electron carrier
"NC(=O)c1ccc[n+]([C@@H]2O[C@H](COP(=O)([O-])OP(=O)(O)OC[C@H]3O[C@@H](n4cnc5c(N)ncnc54)[C@H](O)[C@@H]3O)[C@@H](O)[C@H]2O)c1 [NAD, Nicotinamide adenine dinucleotide]",cofactor for oxidation of secondary alcohols in the cell-free system,[7],requirement; also recorded: required
same,Km,"[4]; Line-Weaver-Burk plot, read-out: Michaelis constants (Km) of SADH",11 µM
same,Km,"[4]; pure SADH, read-out: Km values",11 µM
same,electron acceptor for the purified enzyme,[8],required
